Reference: article PMC9299836 (eLife, 2022)
Where “and” joins values, the source holds several entries; their conditions need not be identical. Equal values may be shown once.

Legend:
[1] = molecular target: mGluR2 (Mus musculus, UniProt Q14BI2); test: Live-cell FRET, SNAP-m2 (VFT domain) inter-subunit sensor in HEK293T cells; conditions: for Mean normalized FRET response, SNAP-m2 NAM DRC: glutamate + 10μM modulator, maximal response normalized to 1mM glutamate;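 as to all read-outs here: apparent FRET efficiency from whole-membrane ROIs of single cells, corrected for donor bleed-through and background, ΔFRET as treatment minus pretreatment signal, recorded at room temperature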
[2] = molecular target: mGluR2 (Mus musculus, UniProt Q14BI2, A548F); test: Single-molecule FRET (SiMPull) of azi-CRD: population histograms and state occupancy; conditions: N 3;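 also: Cy3/Cy5-labelled receptor from HEK293T cell lysate captured on anti-FLAG surfaces, apparent FRET efficiency computed from donor and acceptor intensities with crosstalk correction, pooled into population histograms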
Chain of mGluR2 (Mus musculus, UniProt Q14BI2, A548F) (Q14BI2 19-872 A548F): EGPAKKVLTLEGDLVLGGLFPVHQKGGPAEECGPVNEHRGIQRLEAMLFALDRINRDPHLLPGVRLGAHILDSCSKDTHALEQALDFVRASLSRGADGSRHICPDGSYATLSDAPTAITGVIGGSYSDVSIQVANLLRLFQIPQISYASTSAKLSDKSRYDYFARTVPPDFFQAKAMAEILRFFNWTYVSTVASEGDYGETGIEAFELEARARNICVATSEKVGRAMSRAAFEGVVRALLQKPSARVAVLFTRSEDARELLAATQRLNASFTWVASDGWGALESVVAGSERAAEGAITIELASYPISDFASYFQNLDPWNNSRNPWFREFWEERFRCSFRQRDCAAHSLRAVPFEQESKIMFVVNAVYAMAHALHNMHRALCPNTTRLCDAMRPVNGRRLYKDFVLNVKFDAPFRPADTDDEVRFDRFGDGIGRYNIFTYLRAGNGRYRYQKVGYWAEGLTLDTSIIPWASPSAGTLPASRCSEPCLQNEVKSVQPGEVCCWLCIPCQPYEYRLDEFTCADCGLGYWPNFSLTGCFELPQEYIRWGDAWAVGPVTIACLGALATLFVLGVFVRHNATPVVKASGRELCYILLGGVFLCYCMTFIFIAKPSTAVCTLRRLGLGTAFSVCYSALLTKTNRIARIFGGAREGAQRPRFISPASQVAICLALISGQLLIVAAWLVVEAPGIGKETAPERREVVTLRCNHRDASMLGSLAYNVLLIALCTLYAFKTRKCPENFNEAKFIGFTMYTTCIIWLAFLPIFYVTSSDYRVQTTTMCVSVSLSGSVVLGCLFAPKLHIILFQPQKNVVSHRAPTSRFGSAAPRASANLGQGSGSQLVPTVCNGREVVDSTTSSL

Chain of mGluR2 (Mus musculus, UniProt Q14BI2) (Q14BI2 19-872): as the sequence (Q14BI2 19-872 A548F) above, with F530A counted along it

For MNI-137, the “SNAP-m2 - ΔEfficacy, Mean ΔEfficacy” value ([1]; 10μM MNI-137, ([1 mM glutamate + modulator] - [1 mM glutamate]) × 100) was -14.5253, the “SNAP-m2 - ΔEfficacy, individual cell responses” value ([1]; 10μM MNI-137, single cells) was -10.7213 and -26.7573 and -13.8479 and -17.3754 and -14.1858 and -21.1325 and -12.0197 and -12.3419 and -6.834 and -6.212 and -2.3686 and -0.3026 and -3.79 and -23.2696 and -18.431 and -18.5097 and -23.731 and -16.2088 and -24.4772 and -17.7281 and -7.524 and -21.7885 and the “Mean max response (normalized max ΔFRET)” value ([1]; SNAP-m2, 1 mM glutamate + 10 μM modulator, normalized to 1 mM glutamate) was 0.85. The “Mean ΔPotency” value ([1]; SNAP-m2, 10μM modulator, (([modulator + glutamate]EC50 – [glutamate] EC50)/[glutamate] EC50) × 100) was 44.8085, the “Mean ΔEfficacy” value ([1]; SNAP-m2, 10μM modulator, ([1 mM glutamate + modulator] - [1 mM glutamate]) × 100) was -14.5253 and the “Hill slope of glutamate titration” value ([1]; SNAP-m2 sensor, + 10 μM modulator) was “–1.61”. For the same substance, the “Live-cell FRET max response normalized to 1mM glutamate” value ([1]; SNAP-m2 sensor, Glutamate + 10μM MNI-137, individual values (N=22)) was 0.8581 and 0.7887 and 0.8798 and 0.8766 and 0.9317 and 0.9379 and 0.9763 and 0.997 and 0.9621 and 0.7673 and 0.8157 and 0.8149 and 0.7627 and 0.8379 and 0.7552 and 0.8227 and 0.9248 and 0.7821 and 0.8928 and 0.7324 and 0.8615 and 0.8263, the “Mean normalized FRET response, SNAP-m2 NAM DRC” value (from here on “Mean normalized FRET response”) ([1]; log[Glutamate] (M) -3) was -0.8548 and the “Mean normalized FRET response” value ([1]; log[Glutamate] (M) -4.1549) was -0.777. For the same substance, the “Mean normalized FRET response” value ([1]; log[Glutamate] (M) -4.52288) was -0.6231, the “Mean normalized FRET response” value ([1]; log[Glutamate] (M) -5) was -0.2568 and the “Mean normalized FRET response” value ([1]; log[Glutamate] (M) -5.82391) was -0.04212. The “Mean normalized FRET response” value ([1]; log[Glutamate] (M) -6.52288) was 0, the “Mean normalized FRET response” value ([1]; log[Glutamate] (M) -7) was 0 and the “Mean normalized FRET response” value ([1]; log[Glutamate] (M) -7.69897) was 0. For the same substance, the “Mean normalized FRET response” value ([1]; log[Glutamate] (M) -4.69897) was -0.4828, the “smFRET Histogram, Mean” value ([2]; FRET 0, 0μM Glutamate + GPT/Pyruvate + 5μM MNI-137) was 5.11E-04 and the “smFRET Histogram, Mean” value ([2]; FRET 0.02, 0μM Glutamate + GPT/Pyruvate + 5μM MNI-137) was 6.64E-04. For the same substance, the “smFRET Histogram, Mean” value ([2]; FRET 0.04, 0μM Glutamate + GPT/Pyruvate + 5μM MNI-137) was 0.00218, the “smFRET Histogram, Mean” value ([2]; FRET 0.06, 0μM Glutamate + GPT/Pyruvate + 5μM MNI-137) was 0.00418 and the “smFRET Histogram, Mean” value ([2]; FRET 0.08, 0μM Glutamate + GPT/Pyruvate + 5μM MNI-137) was 0.00801. The “smFRET Histogram, Mean” value ([2]; FRET 0.1, 0μM Glutamate + GPT/Pyruvate + 5μM MNI-137) was 0.01404, the “smFRET Histogram, Mean” value ([2]; FRET 0.1, 15μM Glutamate + 5μM MNI-137) was 0.0021 and the “smFRET Histogram, Mean” value ([2]; FRET 0.12, 0μM Glutamate + GPT/Pyruvate + 5μM MNI-137) was 0.02347. The “smFRET Histogram, Mean” value ([2]; FRET 0.12, 15μM Glutamate + 5μM MNI-137) was 0.00321, the “smFRET Histogram, Mean” value ([2]; FRET 0.14, 0μM Glutamate + GPT/Pyruvate + 5μM MNI-137) was 0.03681 and the “smFRET Histogram, Mean” value ([2]; FRET 0.14, 15μM Glutamate + 5μM MNI-137) was 0.00506. For the same substance, the “smFRET Histogram, Mean” value ([2]; FRET 0.16, 0μM Glutamate + GPT/Pyruvate + 5μM MNI-137) was 0.05131, the “smFRET Histogram, Mean” value ([2]; FRET 0.16, 15μM Glutamate + 5μM MNI-137) was 0.00784 and the “smFRET Histogram, Mean” value ([2]; FRET 0.18, 0μM Glutamate + GPT/Pyruvate + 5μM MNI-137) was 0.06643. For the same substance, the “smFRET Histogram, Mean” value ([2]; FRET 0.18, 15μM Glutamate + 5μM MNI-137) was 0.01263, the “smFRET Histogram, Mean” value ([2]; FRET 0.2, 0μM Glutamate + GPT/Pyruvate + 5μM MNI-137) was 0.07988 and the “smFRET Histogram, Mean” value ([2]; FRET 0.2, 15μM Glutamate + 5μM MNI-137) was 0.01781. For the same substance, the “smFRET Histogram, Mean” value ([2]; FRET 0.22, 0μM Glutamate + GPT/Pyruvate + 5μM MNI-137) was 0.08842, the “smFRET Histogram, Mean” value ([2]; FRET 0.22, 15μM Glutamate + 5μM MNI-137) was 0.02498 and the “smFRET Histogram, Mean” value ([2]; FRET 0.24, 0μM Glutamate + GPT/Pyruvate + 5μM MNI-137) was 0.08863. For the same substance, the “smFRET Histogram, Mean” value ([2]; FRET 0.24, 15μM Glutamate + 5μM MNI-137) was 0.03347, the “smFRET Histogram, Mean” value ([2]; FRET 0.26, 0μM Glutamate + GPT/Pyruvate + 5μM MNI-137) was 0.08743 and the “smFRET Histogram, Mean” value ([2]; FRET 0.26, 15μM Glutamate + 5μM MNI-137) was 0.04243. The “smFRET Histogram, Mean” value ([2]; FRET 0.28, 0μM Glutamate + GPT/Pyruvate + 5μM MNI-137) was 0.07891, the “smFRET Histogram, Mean” value ([2]; FRET 0.28, 15μM Glutamate + 5μM MNI-137) was 0.05374 and the “smFRET Histogram, Mean” value ([2]; FRET 0.3, 0μM Glutamate + GPT/Pyruvate + 5μM MNI-137) was 0.06941. For the same substance, the “smFRET Histogram, Mean” value ([2]; FRET 0.3, 15μM Glutamate + 5μM MNI-137) was 0.06299, the “smFRET Histogram, Mean” value ([2]; FRET 0.32, 0μM Glutamate + GPT/Pyruvate + 5μM MNI-137) was 0.05758 and the “smFRET Histogram, Mean” value ([2]; FRET 0.32, 15μM Glutamate + 5μM MNI-137) was 0.07069. The “smFRET Histogram, Mean” value ([2]; FRET 0.34, 0μM Glutamate + GPT/Pyruvate + 5μM MNI-137) was 0.04784, the “smFRET Histogram, Mean” value ([2]; FRET 0.34, 15μM Glutamate + 5μM MNI-137) was 0.0754 and the “smFRET Histogram, Mean” value ([2]; FRET 0.36, 0μM Glutamate + GPT/Pyruvate + 5μM MNI-137) was 0.03831. For the same substance, the “smFRET Histogram, Mean” value ([2]; FRET 0.36, 15μM Glutamate + 5μM MNI-137) was 0.07714, the “smFRET Histogram, Mean” value ([2]; FRET 0.38, 0μM Glutamate + GPT/Pyruvate + 5μM MNI-137) was 0.03079 and the “smFRET Histogram, Mean” value ([2]; FRET 0.38, 15μM Glutamate + 5μM MNI-137) was 0.07309. For the same substance, the “smFRET Histogram, Mean” value ([2]; FRET 0.4, 0μM Glutamate + GPT/Pyruvate + 5μM MNI-137) was 0.02474, the “smFRET Histogram, Mean” value ([2]; FRET 0.4, 15μM Glutamate + 5μM MNI-137) was 0.06696 and the “smFRET Histogram, Mean” value ([2]; FRET 0.42, 15μM Glutamate + 5μM MNI-137) was 0.05663. The “smFRET Histogram, Mean” value ([2]; FRET 0.44, 0μM Glutamate + GPT/Pyruvate + 5μM MNI-137) was 0.01517, the “smFRET Histogram, Mean” value ([2]; FRET 0.44, 15μM Glutamate + 5μM MNI-137) was 0.0478 and the “smFRET Histogram, Mean” value ([2]; FRET 0.46, 0μM Glutamate + GPT/Pyruvate + 5μM MNI-137) was 0.01122. The “smFRET Histogram, Mean” value ([2]; FRET 0.46, 15μM Glutamate + 5μM MNI-137) was 0.03818, the “smFRET Histogram, Mean” value ([2]; FRET 0.48, 0μM Glutamate + GPT/Pyruvate + 5μM MNI-137) was 0.00878 and the “smFRET Histogram, Mean” value ([2]; FRET 0.48, 15μM Glutamate + 5μM MNI-137) was 0.02974. For the same substance, the “smFRET Histogram, Mean” value ([2]; FRET 0.5, 0μM Glutamate + GPT/Pyruvate + 5μM MNI-137) was 0.0069, the “smFRET Histogram, Mean” value ([2]; FRET 0.5, 15μM Glutamate + 5μM MNI-137) was 0.02283 and the “smFRET Histogram, Mean” value ([2]; FRET 0.52, 0μM Glutamate + GPT/Pyruvate + 5μM MNI-137) was 0.00522. For the same substance, the “smFRET Histogram, Mean” value ([2]; FRET 0.52, 15μM Glutamate + 5μM MNI-137) was 0.01756, the “smFRET Histogram, Mean” value ([2]; FRET 0.54, 0μM Glutamate + GPT/Pyruvate + 5μM MNI-137) was 0.0038 and the “smFRET Histogram, Mean” value ([2]; FRET 0.54, 15μM Glutamate + 5μM MNI-137) was 0.01395. For the same substance, the “smFRET Histogram, Mean” value ([2]; FRET 0.56, 0μM Glutamate + GPT/Pyruvate + 5μM MNI-137) was 0.00307, the “smFRET Histogram, Mean” value ([2]; FRET 0.56, 15μM Glutamate + 5μM MNI-137) was 0.01177 and the “smFRET Histogram, Mean” value ([2]; FRET 0.58, 0μM Glutamate + GPT/Pyruvate + 5μM MNI-137) was 0.00238. The “smFRET Histogram, Mean” value ([2]; FRET 0.58, 15μM Glutamate + 5μM MNI-137) was 0.0101, the “smFRET Histogram, Mean” value ([2]; FRET 0.6, 0μM Glutamate + GPT/Pyruvate + 5μM MNI-137) was 0.00226 and the “smFRET Histogram, Mean” value ([2]; FRET 0.6, 15μM Glutamate + 5μM MNI-137) was 0.0089. The “smFRET Histogram, Mean” value ([2]; FRET 0.62, 15μM Glutamate + 5μM MNI-137) was 0.0083, the “smFRET Histogram, Mean” value ([2]; FRET 0.64, 0μM Glutamate + GPT/Pyruvate + 5μM MNI-137) was 0.00164 and the “smFRET Histogram, Mean” value ([2]; FRET 0.64, 15μM Glutamate + 5μM MNI-137) was 0.00824. The “smFRET Histogram, Mean” value ([2]; FRET 0.66, 0μM Glutamate + GPT/Pyruvate + 5μM MNI-137) was 0.00119, the “smFRET Histogram, Mean” value ([2]; FRET 0.66, 15μM Glutamate + 5μM MNI-137) was 0.00778 and the “smFRET Histogram, Mean” value ([2]; FRET 0.68, 0μM Glutamate + GPT/Pyruvate + 5μM MNI-137) was 0.00129. For the same substance, the “smFRET Histogram, Mean” value ([2]; FRET 0.68, 15μM Glutamate + 5μM MNI-137) was 0.00775, the “smFRET Histogram, Mean” value ([2]; FRET 0.7, 0μM Glutamate + GPT/Pyruvate + 5μM MNI-137) was 0.00106 and the “smFRET Histogram, Mean” value ([2]; FRET 0.7, 15μM Glutamate + 5μM MNI-137) was 0.00734. The “smFRET Histogram, Mean” value ([2]; FRET 0.72, 0μM Glutamate + GPT/Pyruvate + 5μM MNI-137) was 9.06E-04, the “smFRET Histogram, Mean” value ([2]; FRET 0.72, 15μM Glutamate + 5μM MNI-137) was 0.00691 and the “smFRET Histogram, Mean” value ([2]; FRET 0.74, 0μM Glutamate + GPT/Pyruvate + 5μM MNI-137) was 8.03E-04. The “smFRET Histogram, Mean” value ([2]; FRET 0.74, 15μM Glutamate + 5μM MNI-137) was 0.00635, the “smFRET Histogram, Mean” value ([2]; FRET 0.76, 0μM Glutamate + GPT/Pyruvate + 5μM MNI-137) was 9.58E-04 and the “smFRET Histogram, Mean” value ([2]; FRET 0.76, 15μM Glutamate + 5μM MNI-137) was 0.00599.
